Measurements as given in patent US20140308675A1, “MUTAGENICITY TEST METHOD USING MAMMALIAN CELLS” (NISSIN FOODS HOLDINGS CO., LTD., priority 2011, published 2014).
Entries after “also recorded” stand apart in the source; their conditions may differ. Values belong to the molecule of their own block, whether it stands above or below them.

Key:
[1] = test system: cells TK6/p53R2×3-Luc2P/Rluc; assay: Mutagenicity test with internal control, cells TK6/p53R2×3-Luc2P/Rluc; assay type: cell-based, human; settings: 0.1-20 μg/mL; 6 hours; FIG. 11
Description: Next, in accordance with the method of Example 8, cells stably expressing Luc2P and Rluc were acquired and named TK6/p53R2×3-Luc2P/Rluc.
Next, the above-mentioned two kinds of cells were brought into contact with 5-aza-2′-deoxycytidine (5-aza-dC).
After the removal of the medium, the expression amount of the Luc2P gene was determined as a relative value to the expression amount of the Rluc gene. Specifically, through the use of a luminometer LB96P with an enzyme substrate automatic injector (manufactured by Berthold), first, a substrate solution for firefly luciferase measurement (manufactured by Promega) was dispensed at 30 μL/well to measure the expression amount of the Luc2P gene. After that, a substrate solution for Sea pansy luciferase measurement (manufactured by Promega) was further dispensed at 30 μL/well to determine the expression amount of the Rluc gene.

[2] = test system: HCT116 cells transfected with pGL4-p53R2×3-SV40-Luc2; assay: Luciferase reporter, pGL4-p53R2×3-SV40-Luc2 transformant of HCT116; assay type: cell-based, human; settings: HCT116, pGL4-p53R2×3-SV40-Luc2; 8 hours after contact; FIG. 4
Text: (§1) The obtained various transformants of the MCF-7 cells, the HepG2 cells, the A549 cells, the HCT116 cells, the HEK293 cells, and the NB1RGB cells were used to measure luciferase activities in the same manner as in the TK6 cells.

[3] = test system: A549 cells transfected with PGV-p53R2×3-Luc; assay: Luciferase reporter, PGV-p53R2×3-Luc transformant of A549; assay type: cell-based, human; settings: A549, PGV-p53R2×3-Luc
Description: (§2) To the obtained various transformants of MCF-7, HepG2, A549, HCT116, HEK293, and NB1RGB, adriamycin dissolved in DMSO was added, followed by culture for 8 hours. After that, luciferase activities were measured in the same manner as in the TK6 cells.
(§3) Transfection with plasmid PGV-p53R2×3-Luc, culture, and luciferase activity measurement were performed in the same manner as in Reference Example 1 described above except that the transformant was cultured for the following culture time: 16 hours in TK6 cells; 24 hours in MCF-7, HepG2, A549, HCT116, and HEK293; and 18 hours in NB1RGB.

[4] = test system: HEK293 cells transfected with pGL4-p53R2×3-SV40-Luc2; assay: Luciferase reporter, pGL4-p53R2×3-SV40-Luc2 transformant of HEK293; assay type: cell-based, human; settings: HEK293, pGL4-p53R2×3-SV40-Luc2; 8 hours after contact; FIG. 4
Text: as §1

[5] = test system: NB1RGB cells transfected with pGL4-p53R2×3-SV40-Luc2; assay: Luciferase reporter, pGL4-p53R2×3-SV40-Luc2 transformant of NB1RGB; assay type: cell-based, human; settings: 8 hours after contact, FIG. 4
Text: as §1

[6] = test system: MCF-7 cells transfected with pGL4-p53R2×3-SV40-Luc2; assay: Luciferase reporter, pGL4-p53R2×3-SV40-Luc2 transformant of MCF-7; assay type: cell-based, human; settings: MCF-7, pGL4-p53R2×3-SV40-Luc2; 8 hours after contact; FIG. 4
Text: as §1

[7] = test system: HepG2 cells transfected with pGL4-p53R2×3-SV40-Luc2; assay: Luciferase reporter, pGL4-p53R2×3-SV40-Luc2 transformant of HepG2; assay type: cell-based, human; settings: HepG2, pGL4-p53R2×3-SV40-Luc2; 8 hours after contact; FIG. 4
Text: as §1

[8] = test system: stable expression cells TK6/p53R2×3-Luc2P; assay: Mutagenicity test: luciferase reporter, stable expression cells TK6/p53R2×3-Luc2P
[9] = test system: NB1RGB cells transfected with PGV-p53R2×3-Luc; assay: Luciferase reporter, PGV-p53R2×3-Luc transformant of NB1RGB; assay type: cell-based, human
Description: as §2, §3

[10] = test system: HepG2 cells transfected with PGV-p53R2×3-Luc; assay: Luciferase reporter, PGV-p53R2×3-Luc transformant of HepG2; assay type: cell-based, human; settings: HepG2, PGV-p53R2×3-Luc
Description: as §2, §3

[11] = test system: MCF-7 cells transfected with PGV-p53R2×3-Luc; assay: Luciferase reporter, PGV-p53R2×3-Luc transformant of MCF-7; assay type: cell-based, human; settings: MCF-7, PGV-p53R2×3-Luc
Description: as §2, §3

[12] = test system: TK6 cells transfected with PGV-p53R2×3-Luc; assay: Mutagenicity test: luciferase reporter, transient PGV-p53R2×3-Luc transformant; assay type: cell-based, human; settings: TK6, PGV-p53R2×3-Luc
Description: Next, the same operation as described above was performed to measure luciferase activities except that the plasmid PGV-p53R2×3-Luc prepared in Example 1 of JP 4243716 B2 was used in place of pGL4-p53R2×3-SV40-Luc2.
as §3

[13] = test system: TK6 cells transfected with pGL4-p53R2×3-SV40-Luc2; assay: Mutagenicity test: luciferase reporter, transient pGL4-p53R2×3-SV40-Luc2 transformant; assay type: cell-based, human; settings: 0.003-0.7 μg/mL
Description: Wild-type p53 of a human lymphoblast cell line TK6 cell was confirmed to be normal by DNA sequencing (ABI Prism BigDye Terminater v3.0; manufactured by Applied Biosystems) using primers for sequencing 5′-ACACGCTTCCCTGGATTG-3′ (SEQ ID NO: 17) and 5′-[…]-3′ (SEQ ID NO: 18).
It should be noted that the amount of pGL4-p53R2×3-SV40-Luc2 for transfection was adjusted to 0.25 ng/well.
Next, after the removal of the medium, a cell lysis solution (manufactured by Promega) was added at 25 μl/well, and the whole was left to stand at room temperature for 15 minutes. The plate was set in a luminometer LB96P with an enzyme substrate automatic injector (manufactured by Berthold), and a substrate solution (manufactured by Promega) was automatically dispensed at 30 μL/well to measure luciferase activities.
Wild-type p53 of a human lymphoblast cell line TK6 was confirmed to be normal in the same manner as described above. […] It should be noted that the amount of pGL4-p53R2×3-SV40-Luc2 for transfection was adjusted to 0.25 ng/well.

[14] = test system: A549 cells transfected with pGL4-p53R2×3-SV40-Luc2; assay: Luciferase reporter, pGL4-p53R2×3-SV40-Luc2 transformant of A549; assay type: cell-based, human; settings: A549, pGL4-p53R2×3-SV40-Luc2; 8 hours after contact; FIG. 4
Text: as §1

[15] = test system: HCT116 cells transfected with PGV-p53R2×3-Luc; assay: Luciferase reporter, PGV-p53R2×3-Luc transformant of HCT116; assay type: cell-based, human; settings: HCT116, PGV-p53R2×3-Luc
Description: as §2, §3

[16] = test system: HEK293 cells transfected with PGV-p53R2×3-Luc; assay: Luciferase reporter, PGV-p53R2×3-Luc transformant of HEK293; assay type: cell-based, human; settings: HEK293, PGV-p53R2×3-Luc
Description: as §2, §3

Structure (SMILES): Nc1ncn([C@H]2C[C@H](O)[C@@H](CO)O2)c(=O)n1 [5-aza-dC, 5-aza-2′-deoxycytidine]
- Firefly luciferase (Luc2P) activity not corrected with Rluc activity (w/o internal control) [1]: an increase in measured value due to an increase in concentration of 5-aza-dC
- Luc2P activity corrected with Rluc activity as an internal control (with internal control) [1]: no increase in measured value

- Luciferase activity (% of Solvent control) [2]: only slight luciferase activity
- Luciferase activity (% of Solvent control) ([3]; culture 24 hours, FIG. 6): high luciferase activity
- Luciferase activity (% of Solvent control) [4]: only slight luciferase activity
- Luciferase activity (% of Solvent control) [5]: only slight luciferase activity
- Luciferase activity (% of Solvent control) [6]: only slight luciferase activity
- Luciferase activity (% of Solvent control) [7]: only slight luciferase activity
- Luciferase activity (% of Solvent control) ([9]; culture 18 hours, FIG. 6): high luciferase activity
- Luciferase activity (% of Solvent control) ([10]; culture 24 hours, FIG. 6): high luciferase activity
- Luciferase activity compared with the other cells ([10]; culture 24 hours, FIG. 6): higher luciferase activities
- Luciferase activity (% of Solvent control) ([11]; culture 24 hours, FIG. 6): high luciferase activity
- Luciferase activity compared with the other cells ([11]; culture 24 hours, FIG. 6): higher luciferase activities
- Luciferase activity (% of Solvent control) [14]: only slight luciferase activity
- Luciferase activity (% of Solvent control) ([15]; culture 24 hours, FIG. 6): high luciferase activity
- Luciferase activity (% of Solvent control) ([16]; culture 24 hours, FIG. 6): high luciferase activity
Structure (SMILES): COc1cccc2c1C(=O)c1c(O)c3c(c(O)c1C2=O)C[C@@](O)(C(=O)CO)C[C@@H]3O[C@H]1C[C@H](N)[C@H](O)[C@H](C)O1 [adriamycin]
- Luciferase activity (% of Solvent control) ([3]; contact for 8 hours, FIG. 5): only a slight increase in luciferase activity
- Luciferase activity (% of Solvent control), time-dependent change ([8]; 0.2 μg/mL, 2, 4, 6 and 8 hours, FIG. 9): an increase in luciferase activity due to an increase in concentration of adriamycin
- Luciferase activity (% of Solvent control) ([8]; 0.003-0.7 μg/mL, 6 hours, FIG. 10): an increase in luciferase activity due to an increase in concentration of adriamycin
- Luciferase activity (% of Solvent control) ([9]; contact for 8 hours, FIG. 5): only a slight increase in luciferase activity
- Luciferase activity (% of Solvent control) ([10]; contact for 8 hours, FIG. 5): only a slight increase in luciferase activity
- Luciferase activity (% of Solvent control) ([11]; contact for 8 hours, FIG. 5): only a slight increase in luciferase activity
- Luciferase activity (% of Solvent control) ([12]; 0.003-0.7 μg/mL, contact for 8 hours): very small luciferase activity; also recorded: only a slight increase in luciferase activity
- Luciferase activity (% of Solvent control) ([12]; culture 16 hours, FIG. 6): high luciferase activity
- Luciferase activity (% of Solvent control) ([13]; contact for 4 hours): such an increase in luciferase activity due to an increase in concentration of adriamycin as to be sufficient for performing a mutagenicity test
- Luciferase activity (% of Solvent control) ([13]; contact for 8 hours): very high luciferase activity
- Luciferase activity (% of Solvent control) ([13]; dependence on concentration, FIG. 3): an increase in luciferase activity due to an increase in concentration of adriamycin
- Luciferase activity (% of Solvent control) ([15]; contact for 8 hours, FIG. 5): only a slight increase in luciferase activity
- Luciferase activity (% of Solvent control) ([16]; contact for 8 hours, FIG. 5): only a slight increase in luciferase activity
